Measurements published in patent publication US20230149510A1, “METHOD FOR ALLEVIATING ARTHRITIS USING EPIDERMAL GROWTH FACTOR” (Lovin BioMed Co., Ltd., priority 2021, published 2023).

How the values were obtained:
[1] = system: TNF-α, IL-1β, IL-6, IL-17A, IFN-γ and IL-8 in sole tissue, CII-induced RA; assay: Inflammatory markers in sole tissue (ELISA), collagen-induced RA; assay type: in vivo, DBA/1 mice; conditions: mouse sole tissue
Protocol: 2 mg/mL of a Chick type II collagen (CII) solution (Chondrex Inc., Cat. No. 20012) (in 10 mM acetic acid) was mixed with complete Freund's adjuvant (Sigma Aldrich, Cat. No. F5881-10ML) at a ratio of 1:1 (v/v), so as to obtain a first CII emulsion. 2 mg/mL of a Chick type CII solution was mixed with incomplete Freund's adjuvant (ChemCruzx, Cat. No. sc-24648) at a ratio of 1:1 (v/v), so as to obtain a second CII emulsion.
The female DBA/1 mice were divided into five groups, including one normal control group, one pathological control group, one comparative group, and two experimental groups (i.e., experimental groups 1 to 2) (n=6 mice in each group). 200 μL of the first CII emulsion was injected subcutaneously into the tail of the respective mouse of the pathological control group, the comparative group, and the two experimental groups. The mice were subjected to a boost injection using 200 μL of the second CII emulsion on the 21st day after the initial immunization, so as to induce the occurrence of RA. In addition, the rats of the normal control group were injected with an adjuvant solution (in PBS).
After completion of the boost injection, the respective mouse in the comparative group was intraperitoneally injected with 100 μL of 1% HA, the respective mouse in the experimental group 1 was intraperitoneally injected with 100 μL of the EGF solution (containing 20 μg/g EGF) prepared in section C of Example 1, the respective mouse in the experimental group 2 was intraperitoneally injected with 100 μL of the mixture solution (containing 20 μg/g EGF) prepared in section C of Example 1. Each mouse was administered once daily for a total period of 20 days.
After completion of the evaluation of RA severity as described in section C of this example, the mice in each group were sacrificed by virtue of 95% CO2 asphyxiation, and the knee joint tissue of the hind leg and the sole tissue were obtained from each mouse carcass. The knee joint tissue of the hind leg of each mouse was subjected to histological sectioning, hematoxylin-eosin staining, and microscopic observation in sequence according to the methods described in section F of Example 1.
100 mg of the sole tissue of each mouse obtained in section D of this example was subjected to a freezing treatment with liquid nitrogen, followed by grinding. The resultant ground tissue was mixed with 1 mL of a tissue lysis buffer (Gold Biotechnology, Inc., Cat. No. GB-181-100) (containing protease inhibitor cocktail), followed by determining the contents of TNF-α, IL-1β, IL-6, IL-17A, IFN-γ, and IL-8 respectively using a TNF-α ELISA kit (BioLegend, Cat. No. 430904), an IL-1β ELISA kit (BioLegend, Cat. No. 432604), an IL-6 ELISA kit (BioLegend, Cat. No. 431304), an IL-17A ELISA kit (BioLegend, Cat. No. 432504), an IFN-γ ELISA kit (BioLegend, Cat. No. 430807), and an IL-8 ELISA kit (MyBioSource, Cat. No. MBS261967) in accordance with the manufacturer's instructions.
(§1) The data thus obtained were analyzed according to the method described in section 1 of “General Procedures”.

[2] = system: monosodium iodoacetate (MIA)-induced osteoarthritis (OA), right knee joint; assay: Diameter of right knee joint in MIA-induced OA rats; assay type: in vivo, Sprague Dawley rats; conditions: 30 μL intraarticular on day 3 and day 14, measured end of day 28 with caliper, FIG. 1
Protocol: A. Preparation of mixture containing EGF, CS, and HA EGF, CS, and HA were mixed in a weight ratio of 1:100:1000 in sterile water, so as to obtain a mixture containing EGF (20 μg/g), CS, and HA.
Male Sprague Dawley rats (6 weeks old, with a body weight of approximately 200 to 300 g) used in the following experiments were purchased from National Laboratory Animal Center, Taipei City, Taiwan. All the experimental mice were housed in an animal room under the following laboratory conditions: an alternating 12-hour light and 12-hour dark cycle, a temperature maintained at 21° C. to 24° C., and a relative humidity maintained at 45% to 70%. Furthermore, water and feed were provided ad libitum for all the experimental mice. All experimental procedures involving the experimental mice were in compliance with the legal provision of the Institutional Animal Care and Use Committee of National Chung Hsing University, Taiwan, and were carried out according to the Guide for the Care and Use of Laboratory Animals of National Institutes of Health (NIH).
The Sprague Dawley rats were divided into five groups, including one normal control group, one pathological control group, one comparative group, and two experimental groups (i.e., experimental groups 1 to 2) (n=5 rats in each group). […]
as §1

In the case of “EGF: Epidermal growth factor (Cat. No. 02-108, Joycom Bio-chem) dissolved in PBS, 20 μg/g EGF; given to experimental group 1 (NSDSECPLSHDGYCLHDGVCMYIEALDKYACNCVVGYIGERCQYRDLKWWELR; UniProt P01133 971-1023, looked up)”, the “content of IL-1β” value ([1]; FIG. 8) was “apparently or significantly lower than those determined in the pathological control group”, the “content of IL-6” value ([1]; FIG. 8) was “apparently or significantly lower than those determined in the pathological control group” and the “content of TNF-α” value ([1]; FIG. 8) was “apparently or significantly lower than those determined in the pathological control group”. For the same substance, the “content of IFN-γ” value ([1]; FIG. 9) was “apparently or significantly lower than those determined in the pathological control group”, the “content of IL-8” value ([1]; FIG. 9) was “apparently or significantly lower than those determined in the pathological control group” and the “content of IL-17A” value ([1]; FIG. 9) was “apparently or significantly lower than those determined in the pathological control group”. For the same substance, the “diameter of the right knee joint” value [2] was “lower than that determined in the pathological control group”.

“hyaluronic acid [HA, reference compound]” was tested, and the “diameter of the right knee joint” value [2] was “lower than that determined in the pathological control group”.
